Measurements published in publication PMC7926627, “Fine-Tuning the Biological Profile of Multitarget Mitochondriotropic Antioxidants for Neurodegenerative Diseases” (Antioxidants, 2021).
Where “and” joins values, the source holds several entries; their conditions need not be identical. Equal entries are not always repeated. Where two headings read alike, the source gives them in different places. Marks after values point to notes of the source that are not given here.

Key:
hMAO-A [1] = biological target: T1, hMAO-A (Homo sapiens, UniProt P21397); assay: hMAO-A inhibition, kynuramine substrate; type: biochemical
T1 construct: purchased Sigma Aldrich; host or cells: insect cells (BTI-TN-5B1-4), baculovirus
T1 sequence (P21397 1-527): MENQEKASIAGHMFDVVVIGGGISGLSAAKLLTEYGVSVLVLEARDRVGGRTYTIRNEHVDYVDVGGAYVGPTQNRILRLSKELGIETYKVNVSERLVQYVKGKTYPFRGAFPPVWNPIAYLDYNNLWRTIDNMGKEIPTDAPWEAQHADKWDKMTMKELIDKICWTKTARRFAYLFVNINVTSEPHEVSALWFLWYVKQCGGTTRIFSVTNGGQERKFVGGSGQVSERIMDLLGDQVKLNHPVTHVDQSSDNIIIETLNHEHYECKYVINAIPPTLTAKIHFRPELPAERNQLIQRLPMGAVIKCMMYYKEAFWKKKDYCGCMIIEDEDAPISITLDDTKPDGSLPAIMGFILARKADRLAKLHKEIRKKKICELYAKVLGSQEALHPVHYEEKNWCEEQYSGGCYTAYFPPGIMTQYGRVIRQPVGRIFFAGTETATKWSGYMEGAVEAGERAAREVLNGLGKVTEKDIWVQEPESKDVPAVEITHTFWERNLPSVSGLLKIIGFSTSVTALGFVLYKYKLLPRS
Method: (§1) The inhibitory activity of lipophilic TPP^+ cations on hMAO-A and hMAO-B was studied using an experimental protocol described elsewhere [29, 40]
(§2) Evaluation of human monoamine oxidase (hMAO) inhibitory activity The human monoamine oxidase (hMAO) inhibitory outline was assessed in microsomal MAO isoforms prepared from insect cells (BTI-TN-5B1-4) infected with recombinant baculovirus containing cDNA inserts for hMAO-A or hMAO-B an d by measuring the enzymatic conversion rates of kynuramine into 4-hydroxyquinoline. The appropriate amounts of hMAO-A and hMAO-B were adjusted to obtain, in our experimental conditions, the same maximum
(§3) All assays were performed in sodium phosphate buffer solution 50 mM pH 7.4.
(§4) The compounds under study and reference inhibitors were pre-incubated at 37 °C for 10
(§5) concentration: 2×Km) in 96-well microplates (BRANDplates, pureGradeTM, BRAND GMBH, Wertheim, Germany). Then, the reaction was started with the addition of hMAO-A or hMAO-B.
(§6) Initial velocities were determined spectrophotometrically in a microplate reader (BioTek Synergy HT from BioTek Instruments, Winooski, VT, USA) at 37 °C by measuring the formation of 4-
(§7) The initial velocities, obtained from the linear phase of product formation, were normalized and plotted against the respective inhibitor concentration. IC50 values were obtained from dose-response curves and were expressed as mean ± standard deviation. IC50 values were determined from at least three independent experiments, each performed in triplicate.

[2] = Chromatographic hydrophobicity index by gradient RP-HPLC at pH 2.3
Method: Chromatographic hydrophobicity indexes (CHIs) at pH 2.3 were determined using an experimental protocol described elsewhere [45, 46] and included in the supplementary information.
Evaluation of the chromatographic hydrophobicity index
Chromatographic hydrophobicity indexes (CHIs) values were determined using the
retention times (tR) of samples and a mixture of reference compounds. The data was acquired on
a Shimadzu high-performance liquid chromatograph SPD-M20A system (Shimadzu, Kyoto,
Japan) with a Luna C18 (2) column (Phenomenex, CA, USA) 150×4.6 mm, 5 µm. In CHI
determinations at pH 2.3, mobile phase A was aqueous solution of acetic acid 1 % (v/v) (pH 2.3),
and mobile phase B was acetonitrile. The following gradient program was applied: 1 mL/min
Calibration plots were obtained using a mixture of the following compounds:
paracetamol, theophylline, caffeine, benzimidazole, colchicine, carbamazepine, indole,
propiophenone, butyrophenone, valerophenone, and heptanophenone (Table S1, Figure S2).
hydrophobicity index (CHI) values were calculated as previously described [13, 14].

[3] = biological target: T2, eqBChE (equine butyrylcholinesterase) (Equus caballus, UniProt P81908); design: method as in Benfeito et al. [22]; details: ref Benfeito et al. [22]; cited from earlier work
T2 construct: butyrylcholinesterase (eqBuChE, E.C. 3.1.1.8, from equine serum); purchased Sigma Aldrich; host or cells: equine serum

[4] = test system: differentiated SH-SY5Y cells; assay: Resazurin reduction assay (cytotoxicity); type: cell-based, human; details: 24 h, concentrations up to 100 µM
Method: For cytotoxicity studies, differentiated SH-SY5Y cells were incubated with increasing concentrations of the test compounds (0.20–100 µM) for 24 h. Controls were treated with culture media containing 0.1% DMSO. Cell viability was estimated using two different methods: resazurin reduction assay and NR uptake assay. […]
days. The cultures were passaged once a week by trypsinization (0.25 % trypsin/1 mM EDTA).
To avoid phenotypic changes, the cells used for all experiments were taken between 19th and 28th passages. Cells were differentiated as described previously by Fernandes et al.. Briefly, SH-SY5Y cells were seeded onto 96-well plates at a density of 25,000 cells/cm2 in cell culture medium with trans-retinoic acid (RA) (final concentration of 10 µM) and incubated for 3 days at 37 °C in a humidified, 5% CO2−95% air atmosphere. The cell culture medium was then removed and replaced with medium supplemented with 12-O-tetradecanoylphorbol-13-acetate (TPA) (final concentration 80 nM), and cells were incubated for 3 days. Stock solutions of RA (10 mM) and TPA (80 µM) were prepared in DMSO.
1.5.3. Cytotoxicity assays
1.5.3.1. Resazurin reduction assay
Resazurin is a non-fluorescent, non-toxic water-soluble dye able to permeate through cell […]
highly fluorescent resorufin [8, 9]. Since the conversion of resazurin into resorufin occurs mostly in mitochondria, the amount of resorufin produced can be used as indicator of metabolic activity. The quantity of resorufin production is proportional to the number of viable cells in culture and can be quantified fluorometrically or colorimetrically.
Resazurin reduction assay was performed as previously described by Fernandes et al..
Briefly, after the 24 h incubation periods with the test compounds, the cell culture medium was removed and replaced with fresh culture medium with resazurin (10 μg/mL) prepared in cell culture medium. Differentiated SH-SY5Y cells were incubated for 2 h at 37 °C in a humidified 5% CO2−95% air atmosphere. Then, the fluorescence was read in a multiwell microplate reader (PowerWave XS from BioTek Instruments, Vermont, US), using an excitation wavelength of 540 nm and an emission wavelength of 590 nm. The results were expressed as the percentage of resazurin reduction relative to that of the control (non-treated) cells [resazurin reduction (% of […]
1.5.3.2. Neutral red uptake assay
The neutral red (NR) uptake assay is based on the ability of viable cells to incorporate the supravital dye NR and retain it inside the lysosomes. NR uptake assay was performed as previously described by Fernandes et al. Briefly, after the 24 h incubation periods with the test compounds, the cell culture medium was removed and NR solution ([…]) in fresh cell culture medium was added. Differentiated SH-SY5Y cells and Caco-2 cells were incubated for 2 h and 1 h, respectively, at 37 °C in a humidified, 5% CO2−95% air atmosphere. Then, the cell culture medium was removed and replaced by ethanol absolute/distilled water (1:1) with 5 % acetic acid to liberate the dye from the viable cells. The absorbance was measured at 540 nm in a […]

[5] = design: method as in Teixeira et al. [19],[20]; details: ref Teixeira et al. [19],[20]; cited from earlier work
hMAO-B [6] = biological target: T3, hMAO-B (Homo sapiens, UniProt P27338); assay: biochemical; design: purchased Sigma Aldrich; host or cells: insect cells (BTI-TN-5B1-4), baculovirus
T3 sequence (P27338 1-520): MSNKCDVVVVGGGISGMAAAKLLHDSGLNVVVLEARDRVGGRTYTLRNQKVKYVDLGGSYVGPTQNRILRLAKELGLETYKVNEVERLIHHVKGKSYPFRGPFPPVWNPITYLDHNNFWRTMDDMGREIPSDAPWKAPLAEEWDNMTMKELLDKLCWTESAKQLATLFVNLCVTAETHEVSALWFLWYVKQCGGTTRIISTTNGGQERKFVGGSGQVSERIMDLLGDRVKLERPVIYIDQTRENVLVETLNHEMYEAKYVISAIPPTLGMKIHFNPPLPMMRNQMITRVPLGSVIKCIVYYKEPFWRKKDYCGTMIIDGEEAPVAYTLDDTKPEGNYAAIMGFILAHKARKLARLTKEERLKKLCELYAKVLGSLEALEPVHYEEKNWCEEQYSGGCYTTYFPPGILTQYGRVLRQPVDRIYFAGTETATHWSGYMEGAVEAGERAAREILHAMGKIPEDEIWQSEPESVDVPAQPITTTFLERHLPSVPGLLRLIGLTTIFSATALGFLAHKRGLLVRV
Method: as §1, §2, §3, §4, §5, §6, §7

[7] = Oxygen radical absorbance capacity (ORAC-FL) assay; details: for ORAC-FL Index: relative Trolox equivalent ORAC value
[8] = test system: differentiated SH-SY5Y cells; assay: Neutral red (NR) uptake assay (cytotoxicity); type: cell-based, human; details: 24 h, increasing concentrations up to 100 µM
Method: To avoid phenotypic changes, the cells used for all experiments were taken between 19th and 28th passages. Cells were differentiated as described previously by Fernandes et al. [6]. Briefly, SH-SY5Y cells were seeded onto 96-well plates at a density of 25,000 cells/cm2 in cell culture medium with trans-retinoic acid (RA) (final concentration of 10 µM) and incubated for 3 days at
The neutral red (NR) uptake assay is based on the ability of viable cells to incorporate the supravital dye NR and retain it inside the lysosomes [11]. NR uptake assay was performed as previously described by Fernandes et al. [12] Briefly, after the 24 h incubation periods with the test compounds, the cell culture medium was removed and NR solution (50 mg/mL) in fresh cell culture medium was added. Differentiated SH-SY5Y cells and Caco-2 cells were incubated for 2
multiwell microplate reader (PowerWave XS from BioTek Instruments). The results were
expressed as the percentage of NR uptake relative to that of the control (non-treated) cells [NR
uptake (% of control)] ± standard error mean (SEM) of at least three independent experiments.
Stock solutions of the test compounds (10 µM) were prepared in DMSO and diluted in

[9] = biological target: T2, eqBChE (equine butyrylcholinesterase); assay: biochemical
Method: (§8) The eeAChE and eqBChE inhibitory activities of the compounds under study were determined following the Ellman’s method [32, 33]
(§9) Substrate solutions (ATCI or BCTI) were prepared in deionized water (conductivity ˂ 0.1 µS.cm-
(§10) Evaluation of eel acetylcholinesterase and equine butyrylcholinesterase inhibitory
(§11) The eeAChE and eqBChE inhibitory activities of the compounds under study were evaluated following the Ellman’s method [1, 2]. Briefly, a mixture containing sodium phosphate buffer, enzyme (final concentration: eeAChE 0.05 U/mL and eeBChE 0.05 U/mL), DTNB (final concentration: 400 µM) and the test compounds/reference inhibitors were preincubated for 5 minutes at 30 °C in a 96-well microplate (BRANDplates, pureGradeTM, BRAND GMBH, Wertheim, Germany). In control experiments, sodium phosphate buffer was used instead of the
(§12) ºC in a microplate reader (BioTek Synergy HT from BioTek Instruments, Winooski, VT, USA).
(§13) The rates of the substrate enzymatic hydrolysis were determined, normalized and plotted against the respective inhibitor concentration. IC50 values were obtained from the dose-response curves
(§14) and were expressed as mean ± standard deviation. IC50 values were determined in at least three
(§15) independent experiments, each performed at least in triplicates.

[10] = biological target: T4, eeAChE (electric eel acetylcholinesterase) (Electrophorus electricus, UniProt O42275); assay: eeAChE inhibition, Ellman's method; type: biochemical
T4 construct: Eel acetylcholinesterase (eeAChE, E.C. 3.1.1.7, from Electrophorus electricus); purchased Sigma Aldrich
Method: as §8, §9, §10, §11, §12, §13, §14, §15

[11] = design: method as in Camurri et al. [13]; details: standard mixture for calibration; ref Camurri et al. [13]; cited from earlier work
[12] = test system: differentiated SH-SY5Y cells; details: at concentrations up to 50 µM; ref [58]; cited from earlier work
hMAO-A [13] = biological target: T1, hMAO-A; design: method as in Chavarria et al. [29]; details: read-out: IC50 hMAO-A; ref Chavarria et al. [29]; cited from earlier work
hMAO-B [14] = biological target: T3, hMAO-B; details: read-out: IC50 hMAO-B; ref Chavarria et al. [29]; cited from earlier work

T2 sequence (P81908 whole entry): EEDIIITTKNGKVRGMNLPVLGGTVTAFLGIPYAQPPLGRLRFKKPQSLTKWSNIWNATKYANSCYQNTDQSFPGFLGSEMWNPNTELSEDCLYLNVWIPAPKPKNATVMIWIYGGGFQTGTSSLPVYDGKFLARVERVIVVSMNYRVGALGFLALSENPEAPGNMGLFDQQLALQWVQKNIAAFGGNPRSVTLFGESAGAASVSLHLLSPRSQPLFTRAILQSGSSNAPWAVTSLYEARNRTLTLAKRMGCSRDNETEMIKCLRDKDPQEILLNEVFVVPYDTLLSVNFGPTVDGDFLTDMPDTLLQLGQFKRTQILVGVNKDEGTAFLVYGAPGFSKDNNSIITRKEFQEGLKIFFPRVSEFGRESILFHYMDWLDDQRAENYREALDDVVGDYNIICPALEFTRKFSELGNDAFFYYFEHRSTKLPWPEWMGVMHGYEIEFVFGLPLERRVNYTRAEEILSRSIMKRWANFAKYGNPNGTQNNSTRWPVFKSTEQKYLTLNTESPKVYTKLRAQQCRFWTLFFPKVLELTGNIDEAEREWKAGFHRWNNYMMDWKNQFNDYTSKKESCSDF
T4 sequence (O42275 24-633): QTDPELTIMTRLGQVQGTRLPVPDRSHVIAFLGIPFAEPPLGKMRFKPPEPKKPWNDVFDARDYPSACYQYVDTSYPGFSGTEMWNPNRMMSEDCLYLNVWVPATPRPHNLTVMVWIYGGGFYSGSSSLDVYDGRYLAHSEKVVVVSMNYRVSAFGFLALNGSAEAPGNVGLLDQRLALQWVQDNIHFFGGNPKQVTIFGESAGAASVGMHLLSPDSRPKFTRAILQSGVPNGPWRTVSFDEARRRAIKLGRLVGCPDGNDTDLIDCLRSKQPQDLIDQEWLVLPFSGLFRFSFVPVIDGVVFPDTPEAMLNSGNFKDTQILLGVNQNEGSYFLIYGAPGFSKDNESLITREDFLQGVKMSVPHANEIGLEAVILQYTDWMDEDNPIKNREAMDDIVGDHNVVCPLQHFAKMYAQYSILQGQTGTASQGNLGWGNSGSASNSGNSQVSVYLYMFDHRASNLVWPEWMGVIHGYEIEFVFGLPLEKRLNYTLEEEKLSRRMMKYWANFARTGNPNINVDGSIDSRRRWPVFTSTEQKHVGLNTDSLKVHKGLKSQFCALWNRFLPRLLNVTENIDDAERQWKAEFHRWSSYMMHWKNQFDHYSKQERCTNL

O=C(/C=C/c1ccc(O)c(O)c1)NCCCCCC[P+](c1ccccc1)(c1ccccc1)c1ccccc1 [AntiOXCIN2, reference compound]
IC50 (hMAO-A [1]): > 10 µM
inhibition at 10 µM (hMAO-A [1]): < 50%
CHI [2]: 37.9
IC50 [3]: 0.124 ± 0.007 µM
SI (1): eqBChE selectivity index = IC50(eeAChE)/IC50(eqBChE) [3]: 51 ^d
effect on resazurin reduction [4]: did not markedly affect
Ep (redox potential) [5]: 166 mV and 166 ^a mV
IC50 (hMAO-B [6]): > 10 µM
inhibition at 10 µM (hMAO-B [6]): < 50%
ORAC-FL Index [7]: 2.8 ± 0.1
effect on NR uptake [8]: did not markedly affect

O=C(/C=C/c1ccc(O)c(O)c1)NCCCCCCCC[P+](c1ccccc1)(c1ccccc1)c1ccccc1 [AntiOXCIN3, reference compound]
IC50 (hMAO-A [1]): > 10 µM
inhibition at 10 µM (hMAO-A [1]): < 50%
CHI [2]: 41.4
effect on resazurin reduction [4]: did not markedly affect
Ep (redox potential) [5]: 164 mV and 164 ^a mV
IC50 (hMAO-B [6]): > 10 µM
inhibition at 10 µM (hMAO-B [6]): < 50%
SI (1): eqBChE selectivity index = IC50(eeAChE)/IC50(eqBChE) [9]: 16
IC50 ([9]; read-out: IC50 eqBChE): 0.325 ± 0.09 µM
ORAC-FL Index [7]: 2.6 ± 0.1
effect on NR uptake [8]: did not markedly affect
IC50 [10]: 5.08 ± 0.22 µM

c1ccc2[nH]cnc2c1 [Benzimidazole]
CHI0 pH 2.3 [11]: 6.30

CCCC(=O)c1ccccc1 [Butyrophenone]
CHI0 pH 2.3 [11]: 87.3

Cn1c(=O)c2c(ncn2C)n(C)c1=O [Caffeine]
CHI0 pH 2.3 [11]: 23.41

NC(=O)N1c2ccccc2C=Cc2ccccc21 [Carbamazepine]
CHI0 pH 2.3 [11]: 60.42

COc1cc2c(c(OC)c1OC)-c1ccc(OC)c(=O)cc1[C@@H](NC(C)=O)CC2 [Colchicine]
CHI0 pH 2.3 [11]: 43.9

O=C(C=CC=Cc1ccc2c(c1)OCO2)N1CCCCC1 [Compound 1, 1-[5-(1,3-benzodioxol-5-yl)-1-oxo-2,4-pentadienyl]piperidine]
CHI [2]: 73.4
cytotoxic effects [12]: did not exhibit cytotoxic effects
IC50 (hMAO-A [13]): > 10 µM
ROO• radical scavenging ([7]; ORAC-FL): unable to scavenge ROO• radicals
IC50 (hMAO-B [14]): 1.05 ± 0.08 µM

CCCCCCC(=O)c1ccccc1 [Heptanophenone]
CHI0 pH 2.3 [11]: 112.1

c1ccc2[nH]ccc2c1 [Indole]
CHI0 pH 2.3 [11]: 72.1

CC(=O)Nc1ccc(O)cc1 [Paracetamol]
CHI0 pH 2.3 [11]: 18.77

CCC(=O)c1ccccc1 [Propiophenone]
CHI0 pH 2.3 [11]: 77.4

Cn1c(=O)c2[nH]cnc2n(C)c1=O [Theophyline]
CHI0 pH 2.3 [11]: 17.9

CCCCC(=O)c1ccccc1 [Valerophenone]
CHI0 pH 2.3 [11]: 96.4
